Experimental data: the kinase profiling compilation of Christmann-Franck et al. (2016)

Columns and labels:
Assay in all cases: KINOMEscan competition binding
Conditions in all cases: compound 1.0 µM
ACVR1B (human) = ACVR1B (human) (UniProt P36896)
AKT1 (human) = AKT1 (human) (UniProt P31749)
CAMK2A (human) = CAMK2A (human) (UniProt Q9UQM7)
CSK (human) = CSK (human) (UniProt P41240)
DCLK1 (human) = DCLK1 (human) (UniProt O15075)
DCLK2 (human) = DCLK2 (human) (UniProt Q8N568)
DCLK3 (human) = DCLK3 (human) (UniProt Q9C098)
DMPK (human) = DMPK (human) (UniProt Q09013)
Sequence of DMPK (human) (Q09013 whole entry, looked up): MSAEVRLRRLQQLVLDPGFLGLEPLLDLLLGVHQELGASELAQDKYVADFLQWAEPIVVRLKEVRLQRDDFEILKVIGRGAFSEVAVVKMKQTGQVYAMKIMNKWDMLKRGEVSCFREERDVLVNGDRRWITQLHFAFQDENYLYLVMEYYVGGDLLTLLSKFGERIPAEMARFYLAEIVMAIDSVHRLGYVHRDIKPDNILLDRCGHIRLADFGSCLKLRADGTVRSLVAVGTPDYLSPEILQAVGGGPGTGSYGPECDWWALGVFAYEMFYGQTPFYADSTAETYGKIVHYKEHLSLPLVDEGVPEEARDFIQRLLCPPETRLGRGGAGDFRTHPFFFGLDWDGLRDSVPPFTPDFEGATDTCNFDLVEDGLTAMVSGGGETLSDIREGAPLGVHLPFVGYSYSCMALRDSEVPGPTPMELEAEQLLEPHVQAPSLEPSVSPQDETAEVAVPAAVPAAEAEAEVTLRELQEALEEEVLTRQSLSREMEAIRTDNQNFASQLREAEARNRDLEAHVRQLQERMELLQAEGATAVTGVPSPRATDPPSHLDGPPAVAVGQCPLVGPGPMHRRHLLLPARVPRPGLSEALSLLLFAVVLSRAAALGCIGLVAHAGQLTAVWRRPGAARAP

[1] = test system: EGFR (human), P00533 [747-751 del / S ins]
[2] = test system: EGFR (human), P00533 [A750P; 747-749 del]
[3] = test system: EGFR (human), P00533 [L858R]
[4] = test system: EGFR (human), P00533 [L861Q]
EIF2AK1 (human) = EIF2AK1 (human) (UniProt Q9BQI3)
Sequence of EIF2AK1 (human) (Q9BQI3 whole entry, looked up): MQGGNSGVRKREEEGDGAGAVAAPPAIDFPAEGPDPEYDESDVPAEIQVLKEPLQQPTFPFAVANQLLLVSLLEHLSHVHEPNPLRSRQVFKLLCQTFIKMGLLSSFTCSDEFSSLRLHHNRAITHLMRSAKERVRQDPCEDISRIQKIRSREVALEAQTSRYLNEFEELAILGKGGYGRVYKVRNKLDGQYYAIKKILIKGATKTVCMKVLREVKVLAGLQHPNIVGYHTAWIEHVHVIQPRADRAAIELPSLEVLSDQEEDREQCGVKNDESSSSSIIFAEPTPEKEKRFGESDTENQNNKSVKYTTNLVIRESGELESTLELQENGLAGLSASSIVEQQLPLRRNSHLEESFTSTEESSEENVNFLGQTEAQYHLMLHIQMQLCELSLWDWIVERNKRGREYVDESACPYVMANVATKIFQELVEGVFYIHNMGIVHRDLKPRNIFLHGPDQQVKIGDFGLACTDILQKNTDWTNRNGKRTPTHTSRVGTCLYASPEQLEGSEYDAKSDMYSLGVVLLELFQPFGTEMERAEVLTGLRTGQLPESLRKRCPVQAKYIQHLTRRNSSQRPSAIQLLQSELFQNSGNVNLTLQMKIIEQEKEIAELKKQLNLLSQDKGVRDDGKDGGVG

[5] = test system: FLT3 (human), P36888 [K663Q]
IGF1R (human) = IGF1R (human) (UniProt P08069)
MAP3K4 (human) = MAP3K4 (human) (UniProt Q9Y6R4)
MAP3K9 (human) = MAP3K9 (human) (UniProt P80192)
MAP4K1 (human) = MAP4K1 (human) (UniProt Q92918)
Sequence of MAP4K1 (human) (Q92918 whole entry, looked up): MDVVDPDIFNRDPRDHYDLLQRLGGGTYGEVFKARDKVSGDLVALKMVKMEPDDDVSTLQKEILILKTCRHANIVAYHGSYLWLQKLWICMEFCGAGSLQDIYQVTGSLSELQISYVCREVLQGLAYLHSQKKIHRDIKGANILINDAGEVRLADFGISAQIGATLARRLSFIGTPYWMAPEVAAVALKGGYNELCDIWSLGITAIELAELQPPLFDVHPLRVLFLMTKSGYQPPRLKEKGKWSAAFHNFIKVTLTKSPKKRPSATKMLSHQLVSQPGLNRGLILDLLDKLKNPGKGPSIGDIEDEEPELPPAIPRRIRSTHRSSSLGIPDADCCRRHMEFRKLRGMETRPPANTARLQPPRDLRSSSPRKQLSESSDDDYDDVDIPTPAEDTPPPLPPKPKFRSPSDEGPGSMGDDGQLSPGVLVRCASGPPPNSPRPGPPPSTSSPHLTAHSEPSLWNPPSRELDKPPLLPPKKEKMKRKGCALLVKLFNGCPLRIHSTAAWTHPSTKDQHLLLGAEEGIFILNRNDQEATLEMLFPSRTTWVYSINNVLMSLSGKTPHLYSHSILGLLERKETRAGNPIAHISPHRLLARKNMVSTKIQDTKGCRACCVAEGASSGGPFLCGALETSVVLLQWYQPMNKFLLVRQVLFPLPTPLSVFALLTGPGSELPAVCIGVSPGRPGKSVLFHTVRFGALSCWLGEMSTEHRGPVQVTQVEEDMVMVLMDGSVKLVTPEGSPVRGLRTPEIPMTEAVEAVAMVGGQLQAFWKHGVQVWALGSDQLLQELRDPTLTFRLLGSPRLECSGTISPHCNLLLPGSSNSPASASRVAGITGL

MAPK10 (human) = MAPK10 (human) (UniProt P53779)
MAPK4 (human) = MAPK4 (human) (UniProt P31152)
MARK3 (human) = MARK3 (human) (UniProt P27448)
MERTK (human) = MERTK (human) (UniProt Q12866)
[6] = test system: MET (human), P08581 [M1250T]
MINK1 (human) = MINK1 (human) (UniProt Q8N4C8)
Sequence of MINK1 (human) (Q8N4C8 whole entry, looked up): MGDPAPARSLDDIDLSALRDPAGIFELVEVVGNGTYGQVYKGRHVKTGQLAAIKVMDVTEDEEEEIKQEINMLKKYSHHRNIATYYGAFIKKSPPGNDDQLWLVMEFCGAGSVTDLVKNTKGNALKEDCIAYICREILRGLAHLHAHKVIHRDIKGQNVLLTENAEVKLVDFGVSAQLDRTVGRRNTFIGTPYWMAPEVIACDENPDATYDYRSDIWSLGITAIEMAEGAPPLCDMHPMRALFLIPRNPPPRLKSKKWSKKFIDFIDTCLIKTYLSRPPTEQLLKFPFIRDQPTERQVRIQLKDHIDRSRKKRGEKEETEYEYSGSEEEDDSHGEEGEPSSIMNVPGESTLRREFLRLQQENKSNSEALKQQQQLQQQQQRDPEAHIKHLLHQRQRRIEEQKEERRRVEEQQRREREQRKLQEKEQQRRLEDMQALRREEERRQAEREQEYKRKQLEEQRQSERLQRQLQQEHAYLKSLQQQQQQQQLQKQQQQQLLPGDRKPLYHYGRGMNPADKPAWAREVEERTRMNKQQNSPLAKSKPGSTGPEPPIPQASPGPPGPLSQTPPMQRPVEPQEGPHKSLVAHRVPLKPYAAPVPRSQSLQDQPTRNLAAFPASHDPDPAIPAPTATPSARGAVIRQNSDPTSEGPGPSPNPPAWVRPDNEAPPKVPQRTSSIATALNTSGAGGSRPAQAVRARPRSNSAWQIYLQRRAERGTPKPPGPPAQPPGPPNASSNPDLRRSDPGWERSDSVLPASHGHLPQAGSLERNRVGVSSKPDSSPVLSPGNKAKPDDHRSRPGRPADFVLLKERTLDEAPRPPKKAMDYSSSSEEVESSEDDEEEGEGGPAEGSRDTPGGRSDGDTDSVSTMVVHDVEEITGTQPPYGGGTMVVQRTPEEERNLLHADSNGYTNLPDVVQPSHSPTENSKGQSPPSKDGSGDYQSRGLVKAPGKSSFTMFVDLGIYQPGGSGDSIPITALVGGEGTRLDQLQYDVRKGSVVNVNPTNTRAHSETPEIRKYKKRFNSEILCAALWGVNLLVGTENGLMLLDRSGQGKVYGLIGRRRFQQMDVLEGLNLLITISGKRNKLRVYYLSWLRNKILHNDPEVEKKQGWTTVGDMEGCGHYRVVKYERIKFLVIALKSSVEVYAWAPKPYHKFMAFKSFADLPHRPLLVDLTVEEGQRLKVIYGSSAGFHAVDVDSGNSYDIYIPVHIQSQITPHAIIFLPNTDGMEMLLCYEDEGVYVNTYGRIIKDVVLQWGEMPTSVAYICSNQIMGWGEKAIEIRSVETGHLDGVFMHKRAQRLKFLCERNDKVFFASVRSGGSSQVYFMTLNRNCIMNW

MST4 (human) = MST4 (human) (UniProt Q9P289)
PDGFRB (human) = PDGFRB (human) (UniProt P09619)
PDPK1 (human) = PDPK1 (human) (UniProt O15530)
[7] = test system: PIK3CA (human), P42336 [E545K]
PIK3CD (human) = PIK3CD (human) (UniProt O00329)
Sequence of PIK3CD (human) (O00329 whole entry, looked up): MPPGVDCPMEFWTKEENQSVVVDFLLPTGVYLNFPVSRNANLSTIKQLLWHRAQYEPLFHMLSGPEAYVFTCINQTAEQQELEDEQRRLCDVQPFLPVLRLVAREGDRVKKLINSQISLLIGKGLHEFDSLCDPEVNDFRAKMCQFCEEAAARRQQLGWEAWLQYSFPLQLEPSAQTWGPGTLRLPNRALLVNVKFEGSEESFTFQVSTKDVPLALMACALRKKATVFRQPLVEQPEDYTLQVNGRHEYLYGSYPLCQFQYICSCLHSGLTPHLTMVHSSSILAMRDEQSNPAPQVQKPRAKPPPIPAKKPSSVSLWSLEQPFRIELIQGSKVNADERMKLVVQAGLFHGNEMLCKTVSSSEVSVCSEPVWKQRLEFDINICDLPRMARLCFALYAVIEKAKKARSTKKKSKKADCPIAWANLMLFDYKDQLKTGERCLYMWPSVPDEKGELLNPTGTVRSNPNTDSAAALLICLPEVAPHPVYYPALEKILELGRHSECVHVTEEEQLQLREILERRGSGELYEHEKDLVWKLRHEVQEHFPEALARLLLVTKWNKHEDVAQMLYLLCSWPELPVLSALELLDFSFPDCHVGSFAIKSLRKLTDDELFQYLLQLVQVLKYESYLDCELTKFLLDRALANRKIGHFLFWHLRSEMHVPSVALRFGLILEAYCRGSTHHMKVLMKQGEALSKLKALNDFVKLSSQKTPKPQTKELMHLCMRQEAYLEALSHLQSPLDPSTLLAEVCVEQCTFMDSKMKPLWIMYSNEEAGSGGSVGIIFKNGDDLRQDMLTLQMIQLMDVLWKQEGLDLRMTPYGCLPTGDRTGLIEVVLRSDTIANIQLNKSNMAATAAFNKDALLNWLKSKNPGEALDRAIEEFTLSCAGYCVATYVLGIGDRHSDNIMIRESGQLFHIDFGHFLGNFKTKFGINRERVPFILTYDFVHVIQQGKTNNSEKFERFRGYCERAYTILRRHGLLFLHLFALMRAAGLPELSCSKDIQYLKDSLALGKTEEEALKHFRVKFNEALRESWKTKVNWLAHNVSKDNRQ

PIK3CG (human) = PIK3CG (human) (UniProt P48736)
PIM2 (human) = PIM2 (human) (UniProt Q9P1W9)
PIP4K2B (human) = PIP4K2B (human) (UniProt P78356)
PLK2 (human) = PLK2 (human) (UniProt Q9NYY3)
PTK2B (human) = PTK2B (human) (UniProt Q14289)
RIOK3 (human) = RIOK3 (human) (UniProt O14730)
Sequence of RIOK3 (human) (O14730 whole entry, looked up): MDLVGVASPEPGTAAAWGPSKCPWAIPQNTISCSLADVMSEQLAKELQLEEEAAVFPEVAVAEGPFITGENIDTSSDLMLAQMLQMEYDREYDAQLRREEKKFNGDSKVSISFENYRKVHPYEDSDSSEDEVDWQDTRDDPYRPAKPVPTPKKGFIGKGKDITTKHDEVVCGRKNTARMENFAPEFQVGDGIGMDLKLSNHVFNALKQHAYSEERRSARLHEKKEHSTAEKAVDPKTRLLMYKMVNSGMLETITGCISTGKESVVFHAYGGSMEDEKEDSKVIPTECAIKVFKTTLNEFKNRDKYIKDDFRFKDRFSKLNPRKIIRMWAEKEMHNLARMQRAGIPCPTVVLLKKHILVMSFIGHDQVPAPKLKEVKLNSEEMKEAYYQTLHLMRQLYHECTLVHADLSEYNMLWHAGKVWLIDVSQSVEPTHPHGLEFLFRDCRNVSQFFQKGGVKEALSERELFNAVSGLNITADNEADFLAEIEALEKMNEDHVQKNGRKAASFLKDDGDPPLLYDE

ROS1 (human) = ROS1 (human) (UniProt P08922)
RPS6KA6 KD2 (human) = RPS6KA6 KD2 (human) (UniProt Q9UK32)
RPS6KB1 (human) = RPS6KB1 (human) (UniProt P23443)
SIK3 (human) = SIK3 (human) (UniProt Q9Y2K2)
TESK1 (human) = TESK1 (human) (UniProt Q15569)
TNNI3K (human) = TNNI3K (human) (UniProt Q59H18)
TSSK1B (human) = TSSK1B (human) (UniProt Q9BXA7)
ULK1 (human) = ULK1 (human) (UniProt O75385)

SMILES: COCCNCCCn1c(C(=O)CF)c(-c2ccc(C)cc2)c2c(N)ncnc21
- kinase still bound, per cent of control (ACVR1B (human)): 91%
- kinase still bound, per cent of control (AKT1 (human)): 100%
- kinase still bound, per cent of control (CAMK2A (human)): 78%
- kinase still bound, per cent of control (CSK (human)): 95%
- kinase still bound, per cent of control (DCLK1 (human)): 100%
- kinase still bound, per cent of control (DCLK2 (human)): 100%
- kinase still bound, per cent of control (DCLK3 (human)): 100%
- kinase still bound, per cent of control (DMPK (human)): 84%
- kinase still bound, per cent of control [1]: 84%
- kinase still bound, per cent of control [2]: 67%
- kinase still bound, per cent of control [3]: 62%
- kinase still bound, per cent of control [4]: 84%
- kinase still bound, per cent of control (EIF2AK1 (human)): 100%
- kinase still bound, per cent of control [5]: 100%
- kinase still bound, per cent of control (IGF1R (human)): 100%
- kinase still bound, per cent of control (MAP3K4 (human)): 100%
- kinase still bound, per cent of control (MAP3K9 (human)): 100%
- kinase still bound, per cent of control (MAP4K1 (human)): 86%
- kinase still bound, per cent of control (MAPK10 (human)): 100%
- kinase still bound, per cent of control (MAPK4 (human)): 100%
- kinase still bound, per cent of control (MARK3 (human)): 100%
- kinase still bound, per cent of control (MERTK (human)): 99%
- kinase still bound, per cent of control [6]: 95%
- kinase still bound, per cent of control (MINK1 (human)): 100%
- kinase still bound, per cent of control (MST4 (human)): 69%
- kinase still bound, per cent of control (PDGFRB (human)): 68%
- kinase still bound, per cent of control (PDPK1 (human)): 100%
- kinase still bound, per cent of control [7]: 100%
- kinase still bound, per cent of control (PIK3CD (human)): 100%
- kinase still bound, per cent of control (PIK3CG (human)): 100%
- kinase still bound, per cent of control (PIM2 (human)): 99%
- kinase still bound, per cent of control (PIP4K2B (human)): 94%
- kinase still bound, per cent of control (PLK2 (human)): 96%
- kinase still bound, per cent of control (PTK2B (human)): 100%
- kinase still bound, per cent of control (RIOK3 (human)): 68%
- kinase still bound, per cent of control (ROS1 (human)): 100%
- kinase still bound, per cent of control (RPS6KA6 KD2 (human)): 2.4%
- kinase still bound, per cent of control (RPS6KB1 (human)): 100%
- kinase still bound, per cent of control (SIK3 (human)): 91%
- kinase still bound, per cent of control (TESK1 (human)): 100%
- kinase still bound, per cent of control (TNNI3K (human)): 89%
- kinase still bound, per cent of control (TSSK1B (human)): 100%
- kinase still bound, per cent of control (ULK1 (human)): 100%
